Experimental data taken from PMC6271088, “Quantification of the Resveratrol Analogs trans-2,3-Dimethoxy-stilbene and trans-3,4-Dimethoxystilbene in Rat Plasma: Application to Pre-Clinical Pharmacokinetic Studies” (Molecules, 2014).
“Also recorded” adds a separate entry of the source. Like-named read-outs stand apart in the source and are kept apart here.

Legend:
[1] = Rat liver microsome metabolic stability; format: in vitro ADME, Sprague-Dawley rat; settings: for half-life at 0.6 µg/mL: Sprague-Dawley, pH 7.4, in the presence of NADPH, 37 °C; for half-life at 0.6 µg/mL / compound remained after microsomal incubation: rat liver microsomes; for stability in acetonitrile-inactivated microsomes: acetonitrile-inactivated microsomes (chemical stability); for compound remained after microsomal incubation: in the absence of NADPH, 45 min incubation
Description: RLM metabolic stabilities of 2,3-DMS and 3,4-DMS were examined by mixing Sprague-Dawley RLM with potassium phosphate buffer (pH = 7.4), NADPH regenerating solution B and either compounds to achieve a final compound concentration of 0.6 µg/mL. Negative control was set up, using Milli-Q water in place of NADPH. Chemical stability of compound in inactivated RLM was checked using similar system with acetonitrile/Milli-Q mixture instead of phosphate buffe.
Pre-incubation was done in 37 °C water bath for 5 min before NADPH A was added to initiate reaction. Aliquots were drawn at 0, 5, 15, 25, 35 and 45 min and quenched using ice cold trans-stilbene–acetonitrile working solution. Chemical stability was monitored at 0, 25 and 45 min. The samples were further processed for HPLC analysis as described above.
To assess extent of metabolism, percentage of compound remaining at each time point with respect to 0 min was calculated. Mean and standard deviation was obtained from column statistics using GraphPad Prism 5, version 5.03 for Windows, via raw means from the six replicates of each setup. Elimination half-lives were obtained from non-linear regression via one-phase exponential decay, where x was time in minutes, y was percentage remaining with respect to 0 min and a weighting factor of 1/y^2 was used.

[2] = Oral pharmacokinetics in Sprague-Dawley rats; format: in vivo; settings: for post-dosing plasma samples above LLOQ (10 ng/mL): six rats
Description: (§1) This animal model has been used to investigate the pharmacokinetics of various stilbenes. The animal handling protocol was reviewed and approved by the Institutional Animal Care and Use Committee of the National University of Singapore (NUS). All animal experiments were carried out in Comparative Medicine Centre of NUS. Sprague-Dawley rats (male, 346 ± 18 g, bred by Centre for Animal Resources, NUS) were maintained on a 12 h light/dark cycle with free access to food and water. Polyethylene tube (inner diameter (I.D.) 0.58 mm, outside diameter (O.D.) 0.965 mm, Becton Dickinson, Sparks, MD, USA) was implanted into the right jugular vein under anaesthesia on the day before pharmacokinetic study. This catheter was used for intravenous drug administration as well as for blood sampling.
(§2) Twenty-two rats were divided into four groups. Group 1 and Group 2 (n = 5) received single intravenous bolus dose (4 mg/kg) of 2,3-DMS and 3,4-DMS respectively. Serial blood samples were collected before dosing (0 min) and at 5, 15, 30, 60, 90, 120, 180, 300, 480 and 660 min post-dosing. Group 3 and Group 4 (n = 6) received single oral dose (10 mg/kg) of 2,3-DMS and 3,4-DMS respectively through oral gavage and serial blood samples were collected before dosing (0 min) and at 15, 30, 45, 60, 90, 120, 180, 300, 480 and 660 min post-dosing. 0.3 mL heparin-saline (10 I.U./mL) was used to flush the cannular after each intravenous injection or blood sampling to maintain its patency. Blood samples were centrifuged at 3500 g at 4 °C for 5 min and plasma was collected and stored at −80 °C.
(§3) Pharmacokinetic parameters were derived using WinNonlin standard version 1.0 (Scientific Consulting Inc., Apex, NC, USA). […] Plasma exposure (area under the plasma concentration-time curve from 0 min to last measurable point (AUC0→last)) in rats receiving intravenous administration was calculated by the linear/log trapezoidal rule while the linear trapezoidal rule was used to calculate the plasma exposure in rats receiving oral administration. Clearance (Cl0→last), mean transit time (MTT0→last) and terminal half-life (t1/2 λZ) were calculated using non-compartmental analysis. Maximal plasma concentration (Cmax) and the time required to reach (tmax) were from direct experimental observations. Absolute oral bioavailability (F) of 2,3-DMS was calculated through reported method.

[3] = Post-preparative stability (processed samples in auto-sampler vial); format: physicochemical; settings: rat, Post-preparative samples stored at 24 °C for 24 h, read-out: Stability (% Remained); for remaining at 24 h, 25 ng/mL: spiked 25 ng/mL; for remaining at 24 h, 400 ng/mL: spiked 400 ng/mL; for remaining at 24 h, 1400 ng/mL: spiked 1400 ng/mL
Description: (§4) Stock solutions of analytes were prepared in DMSO to a final concentration of 1 mg/mL, stored at room temperature (24 °C) and protected from light. The internal standard (IS) (trans-stilbene) was prepared by dissolving in acetonitrile and diluted to 100 ng/mL (working solution). Equal volumes of rat liver microsome (RLM) and trans-stilbene–acetonitrile working solution were mixed to quench the reaction. After vigorous vortexing for 20 s, the samples were centrifuged at 6,000 g for 10 min at 4 °C. Rat plasma samples were processed by adding trans-stilbene–acetonitrile working solution to rat plasma in 3:1 ratio. After vigorous vortexing for 20 s, the samples were centrifuged at 10,000 g for 4 min at 4 °C. Finally, the supernatant was transferred into a glass insert that was pre-installed in a 1.5 mL auto-sampler vial. During each assay, 75 µL supernatant was injected into the HPLC-UV system.
(§5) Stabilities of 2,3-DMS in stock solution were evaluated after storage at room temperature for eight days. Stability of 2,3-DMS in rat plasma under different conditions was profiled with QC samples. Freeze-thaw stability was assessed after three freeze (−80 °C)–thaw (24 °C) cycles. Short-term room temperature stability (24 °C) of 2,3-DMS in rat plasma was examined after storing such samples at room temperature for 6 h. Long-term storage stability of 2,3-DMS in rat plasma was studied after being stored at −80 °C for 10 days. Post-preparative stability study was conducted by re-analyzing samples (kept in auto-sampler vial at room temperature) 24 h later. The stability of 3,4-DMS was assessed in the same way. Samples were considered stable if analytical responses were within 100% ± 15% of corresponding freshly prepared samples.

[4] = Intravenous pharmacokinetics in Sprague-Dawley rats; format: in vivo; settings: intravenous 4 mg/kg; for plasma level relative to LLOQ (10 ng/mL) over sampling period: sampling up to 660 min; for B / α / β / A: two-compartment model; for A: HP-β-CD formulation; for AUC(0-t) / clearance / Vd / half-life: male, Sprague-Dawley, rat, plasma; for clearance: read-out: Cl (clearance); for Vd: read-out: Vc (volume of distribution of the central compartment); for half-life: read-out: t1/2 λZ (terminal elimination half-life)
Description: as §1, §2, §3

[5] = Stability in rat plasma (QC samples: short-term, freeze-thaw, long-term); format: in vitro ADME; settings: read-out: Stability (% Remained); for remaining at 25 ng/mL / remaining at 400 ng/mL / remaining at 1400 ng/mL: Plasma samples after three freeze-thaw cycles; for remaining at 25 ng/mL / remaining at 6 h, 25 ng/mL / remaining at 240 h, 25 ng/mL: spiked 25 ng/mL; for remaining at 400 ng/mL / remaining at 6 h, 400 ng/mL / remaining at 240 h, 400 ng/mL: spiked 400 ng/mL; for remaining at 1400 ng/mL / remaining at 6 h, 1400 ng/mL / remaining at 240 h, 1400 ng/mL: spiked 1400 ng/mL; for remaining at 6 h, 25 ng/mL / remaining at 6 h, 400 ng/mL / remaining at 6 h, 1400 ng/mL: Plasma samples stored at 4 °C for 6 h; for remaining at 240 h, 25 ng/mL / remaining at 240 h, 400 ng/mL / remaining at 240 h, 1400 ng/mL: Plasma samples stored at −80 °C for 10 days
Description: as §5, with “Short-term room temperature stability (24 °C) of 2,3-DMS in rat plasma was examined after storing such samples at room temperature for 6 h.” left out

[6] = Stock solution stability (DMSO stock, room temperature); format: physicochemical; settings: Stock solution stored at 24 °C for 8 days, read-out: Stability (% Remained)
Description: as §4
Stabilities of 2,3-DMS in stock solution were evaluated after storage at room temperature for eight days. Stability of 2,3-DMS in rat plasma under different conditions was profiled with QC samples. Freeze-thaw stability was assessed after three freeze (−80 °C)–thaw (24 °C) cycles. Short-term room temperature stability (24 °C) of 2,3-DMS in rat plasma was examined after storing such samples at room temperature for 6 h. […] The stability of 3,4-DMS was assessed in the same way. […]

[7] = cited from earlier work

Row | SMILES | half-life at 0.6 µg/mL [1] | stability in acetonitrile-inactivated microsomes [1] | compound remained after microsomal incubation [1] | post-dosing plasma samples above LLOQ (10 ng/mL) ([2]; oral 10 mg/kg) | remaining at 24 h, 25 ng/mL [3] | remaining at 24 h, 400 ng/mL [3] | remaining at 24 h, 1400 ng/mL [3] | plasma level relative to LLOQ (10 ng/mL) over sampling period [4] | B [4] | α [4] | β [4] | A [4] | AUC(0-t) [4] | clearance [4] | Vd [4] | half-life [4] | remaining at 25 ng/mL [5] | remaining at 400 ng/mL [5] | remaining at 1400 ng/mL [5] | oral bioavailability (in words) [7] | also measured
1 | COc1cccc(/C=C/c2ccccc2)c1OC [2,3-DMS, trans-2,3-Dimethoxystilbene] | 0.237 h | good stability | 46.6% ± 4.6% | 32 out of 60 | 97.2 ± 2.5% | 100.1 ± 0.5% | 100.6 ± 0.7% | remained quantifiable throughout our sampling period | 135.6 ± 40.6 ng/mL | 5.02 ± 1.76 10^−2 × min^−1 | 3.08 ± 0.73 10^−3 × min^−1 | 1384.1 ± 251.4 ng/mL | 1160 ng·h/mL | 52 ± 7 mL/min/kg | 2.71 ± 0.51 L/kg | 4.81 ± 1.55 h | 102 ± 4.5% | 93.2 ± 1.2% | 91.8 ± 2.6% |  | Cmax ([2]; male, Sprague-Dawley, rat, plasma, oral 10 mg/kg): 37.5 ± 23.7 ng/mL; bioavailability ([2]; male, Sprague-Dawley, rat, plasma, oral 10 mg/kg vs intravenous 4 mg/kg, read-out: F (oral bioavailability)): 2.22 ± 2.13%; AUC(0-t) ([2]; male, Sprague-Dawley, rat, plasma, oral 10 mg/kg, HP-β-CD formulation): 64.3 ng·h/mL; MTT0→last (mean transit time) ([2]; oral 10 mg/kg): 83.2 ± 67.4 min; MTT0→last (mean transit time) [4]: 131.0 ± 4.5 min; remaining at 6 h, 25 ng/mL [5]: 94.9 ± 4.4%; remaining at 6 h, 400 ng/mL [5]: 95.5 ± 1.1%; remaining at 6 h, 1400 ng/mL [5]: 95.4 ± 0.6%; remaining at 240 h, 25 ng/mL [5]: 107 ± 6.6%; remaining at 240 h, 400 ng/mL [5]: 96.6 ± 4.7%; remaining at 240 h, 1400 ng/mL [5]: 93.5 ± 4.1%; remaining at 192 h, 1 mg/mL [6]: 98.1 ± 2.1%
2 | COc1cc(C=Cc2cc(OC)c(OC)c(OC)c2)cc(OC)c1 [3,4,5,3',5'-pentamethoxystilbene] |  |  |  |  |  |  |  |  |  |  |  |  |  |  |  |  |  |  |  | excellent or quite good oral bioavailability | 
3 | COc1ccc(/C=C/c2ccccc2)cc1OC [3,4-DMS, trans-3,4-dimethoxystilbene] | 0.277 h | good stability | 78.1% ± 5.3% | three post-dosing samples collected from one out of six rats | 98.1 ± 5.7% | 98.1 ± 1.8% | 100.1 ± 0.6% | became unmeasurable at 11 h | 55.9 ± 26.1 ng/mL | 5.25 ± 1.45 10^−2 × min^−1 | 3.85 ± 2.45 10^−3 × min^−1 | 702.7 ± 148.5 ng/mL | 427 ng·h/mL | 143 ± 40.5 mL/min/kg | 5.58 ± 1.73 L/kg | 3.22 ± 2.05 h | 106 ± 5.2% | 93.4 ± 0.7% | 92.4 ± 2.4% |  | oral bioavailability (in words) ([2]; oral 10 mg/kg, 10 mg/kg): even poorer than 2,3-DMS; also recorded: almost nil; clearance relative to rat hepatic blood flow [4]: three-fold; MTT0→last (mean transit time) ([4]; 4 mg/kg): 61.4 ± 27.1 min; remaining at 6 h, 25 ng/mL [5]: 104 ± 6.6%; remaining at 6 h, 400 ng/mL [5]: 94.7 ± 0.7%; remaining at 6 h, 1400 ng/mL [5]: 96.2 ± 0.4%; remaining at 240 h, 25 ng/mL [5]: 91 ± 13.8%; remaining at 240 h, 400 ng/mL [5]: 93.6 ± 4.6%; remaining at 240 h, 1400 ng/mL [5]: 93 ± 3.7%; remaining at 192 h, 1 mg/mL [6]: 96.7 ± 2.7%
4 | COc1ccc(/C=C/c2cc(OC)cc(OC)c2)cc1 [3,5,4'-trimethoxysilbene, trans-3,5,4'-trimethoxystilbene] |  |  |  |  |  |  |  |  |  |  |  |  |  |  |  |  |  |  |  | excellent or quite good oral bioavailability | 
5 | Oc1cc(O)cc(/C=C/c2ccccc2)c1 [pinosylvine, trans-3,5-dihydroxystilbene] |  |  |  |  |  |  |  |  |  |  |  |  |  |  |  |  |  |  |  | much poorer than resveratrol | 
6 | COc1cc(/C=C/c2ccc(OC)c(OC)c2)cc(OC)c1 [trans-3,5,3',4'-tetramethoxystilbene] |  |  |  |  |  |  |  |  |  |  |  |  |  |  |  |  |  |  |  | excellent or quite good oral bioavailability | 
